Source: US11090304B2 (Amgen Inc., priority 2018, dated 2021)

The compounds below were run against GDP-bound KRAS protein (aa 1-169), containing both G12C and C118A amino acid substitutions (Homo sapiens, UniProt P01116, C118A/G12C) (assay: Coupled nucleotide exchange assay (SOS-mediated, AlphaScreen)). Conditions: 5 min compound pre-incubation.
Type: biochemical

Chain of GDP-bound KRAS protein (aa 1-169), containing both G12C and C118A amino acid substitutions (P01116 1-169 isoform P01116-2 G12C/C118A): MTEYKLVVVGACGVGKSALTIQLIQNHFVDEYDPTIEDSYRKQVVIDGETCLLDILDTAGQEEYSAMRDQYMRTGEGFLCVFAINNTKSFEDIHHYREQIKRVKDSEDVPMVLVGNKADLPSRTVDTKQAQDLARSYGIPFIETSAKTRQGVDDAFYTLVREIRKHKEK

SMILES	Coupled exchange IC50 (5 min)
C=CC(=O)N1CCN(c2nc(=O)n(-c3c(C#N)cccc3C(C)C)c3nc(-c4ccccc4F)c(Cl)cc23)[C@@H](C)C1 (single isomer, unassigned) [Example 60-20-1]	10.2 | nda μM
C=CC(=O)N1CCN(c2nc(=O)n(-c3c(C)ncnc3C3CC3)c3nc(-c4ccccc4F)c(Cl)cc23)[C@@H](C)C1 (single isomer, unassigned) [Example 60-30-1]	1.26 | nda μM
C=CC(=O)N1CCN(c2nc(=O)n(-c3ccccc3C(C)C)c3nc(-c4cccs4)c(Cl)cc23)[C@@H](C)C1 (single isomer, unassigned) [Example 67-4-1]	7.34 | nda μM
C=CC(=O)N1CCN(c2nc(=O)n(-c3ccccc3C(C)C)c3nc(-c4cccs4)c(Cl)cc23)[C@@H](C)C1 (single isomer, unassigned) [Example 67-4-2]	1.91 | nda μM
C=CC(=O)N1CCN(c2nc(=O)n(-c3c(C)cccc3C(C)C)c3nc(-c4c(C)ccc5[nH]ncc45)c(F)cc23)[C@@H](C)C1 (single isomer, unassigned) [Example 68-2-1]	5.29 | nda μM
C=CC(=O)N1CCN(c2nc(=O)n(-c3ccccc3C(C)C)c3nc(N4CCCCC4)c(Cl)cc23)[C@@H](C)C1 (single isomer, unassigned) [Example 69-1-1]	44.1 | nda μM
C=CC(=O)N1CCN(c2nc(=O)n(-c3c(C)cccc3C(C)C)c3nc(-c4nc(N)ccc4Cl)c(F)cc23)[C@@H](C)C1 (single isomer, unassigned) [Example 71-1-2]	4.89 | nda μM
C=CC(=O)N1CCN(c2nc(=O)n(-c3c(C)cccc3C(C)C)c3nc(-c4nc(N)cc5ccccc45)c(F)cc23)[C@@H](C)C1 (single isomer, unassigned) [Example 71-2-1]	8.7 | nda μM
C=CC(=O)N1CCN(c2nc(=O)n(-c3c(C)cccc3C(C)C)c3nc(-c4nc(N)cc5ccccc45)c(F)cc23)[C@@H](C)C1 (single isomer, unassigned) [Example 71-2-2]	1.06 | nda μM
C=CC(=O)N1CCN(c2nc(=O)n(-c3ccccc3C(C)C)c3nc(-c4ccccc4F)c(C)cc23)[C@@H](C)C1 (single isomer, unassigned) [Example 74-1-1]	2.16 | nda μM
C=CC(=O)N1CCN(c2nc(=O)n(-c3c(C)ccnc3C(C)C)c3nc(-c4c(O)cccc4F)c(C)cc23)[C@@H](C)C1 (single isomer, unassigned) [Example 74-3-2]	1.12 | nda μM
C=CC(=O)N1CCN(c2nc(=O)n(-c3c(C)ccnc3C(C)C)c3nc(-c4c(O)cccc4F)c(F)cc23)[C@H](C(F)F)C1 (single isomer, unassigned) [Example 75-9-1, (M)-4-((2S or 2R)-2-(difluoromethyl)-4-(2-propenoyl)-1-piperazinyl)-6-fluoro-7-(2-fluoro-6-hydroxyphenyl)-1-(4-methyl-2-(2-propanyl)-3-pyridinyl)pyrido[2,3-d]pyrimidin-2(1H)-one]	1.87 | nda μM
C=CC(=O)N1CCN(c2nc(=O)n(-c3c(C)ccnc3C(C)C)c3nc(-c4ccccc4F)c(Cl)cc23)[C@H](C(F)F)C1 (single isomer, unassigned) [Example 78-3-1]	1.19 | nda μM
C=CC(=O)N1CCN(c2nc(=O)n(-c3c(C)ccnc3C(C)C)c3nc(-c4ccccc4F)c(Cl)cc23)[C@H](C(F)(F)F)C1 (single isomer, unassigned) [Example 78-9-1]	1.26 | nda μM
C=CC(=O)N1CCN(c2nc(=O)n(-c3c(C)ccnc3C(C)C)c3nc(-c4ccccc4F)c(Cl)cc23)[C@@H](C(F)(F)F)C1 (single isomer, unassigned) [Example 78-9-2]	0.423 | nda μM
C=CC(=O)N1CCN(c2nc(=O)n(-c3c(C)cc(CO)cc3C(C)C)c3nc(-c4ccccc4F)c(Cl)cc23)[C@@H](C)C1 (single isomer, unassigned) [Example 80-2-1]	0.824 | nda μM

Now from value to compound:

Coupled exchange IC50 (5 min)	SMILES
1.15 | nda μM	C=CC(=O)N1CCN(c2nc(=O)n(-c3c(C)cccc3C(C)C)c3nc(-c4c(O)cccc4F)c(F)cc23)C(C)(C)C1 (single isomer, unassigned) [Example 63-4]
85 | nda μM	C=CC(=O)NC1CN(c2nc(=O)n(-c3c(C)ccnc3C(C)C)c3nc(-c4c(O)cccc4F)c(F)cc23)C1 (single isomer, unassigned) [Example 75-6, (M)-N-(1-(6-fluoro-7-(2-fluoro-6-hydroxyphenyl)-1-(4-methyl-2-(2-propanyl)-3-pyridinyl)-2-oxo-1,2-dihydropyrido[2,3-d]pyrimidin-4-yl)-3-azetidinyl)-2-propenamide]
30.3 | nda μM	C=CC(=O)N1CCN(c2nc(=O)n(-c3c(C)ccnc3C(C)C)c3nc(-c4ccccc4F)c(Cl)cc23)C2(CC2)C1 (single isomer, unassigned) [Example 78-4, (M)-6-chloro-7-(2-fluorophenyl)-1-(4-methyl-2-(2-propanyl)-3-pyridinyl)-4-(7-(2-propenoyl)-4,7-diazaspiro[2.5]octan-4-yl)pyrido[2,3-d]pyrimidin-2(1H)-one]
15.4 | nda μM	C=CC(=O)NCCNc1nc(=O)n(-c2c(C)ccnc2C(C)C)c2nc(-c3ccccc3F)c(Cl)cc12 (single isomer, unassigned) [Example 78-12, (M)-N-(2-((6-chloro-7-(2-fluorophenyl)-1-(4-methyl-2-(2-propanyl)-3-pyridinyl)-2-oxo-1,2-dihydropyrido[2,3-d]pyrimidin-4-yl)amino)ethyl)-2-propenamide]
2.22 | nda μM	C=CC(=O)N1C[C@H]2CC[C@@H](C1)N2c1nc(=O)n(-c2c(C)ccnc2C(C)C)c2nc(-c3ccccc3F)c(Cl)cc12 (single isomer, unassigned) [Example 78-13, (M)-6-chloro-7-(2-fluorophenyl)-1-(4-methyl-2-(2-propanyl)-3-pyridinyl)-4-(3-(2-propenoyl)-3,8-diazabicyclo[3.2.1]octan-8-yl)pyrido[2,3-d]pyrimidin-2(1H)-one]
16.6 | nda μM	C=CC(=O)N1C[C@@H](C)N(c2nc(=O)n(-c3c(C)ccnc3C(C)C)c3nc(-c4ccccc4F)c(Cl)cc23)[C@H](C)C1 (single isomer, unassigned) [Example 78-16]
26 | nda μM	C=CC(=O)N1C[C@H]2C[C@@H](C1)N2c1nc(=O)n(-c2c(C)ccnc2C(C)C)c2nc(-c3ccccc3F)c(Cl)cc12 (single isomer, unassigned) [Example 78-17, (M)-6-chloro-7-(2-fluorophenyl)-1-(4-methyl-2-(2-propanyl)-3-pyridinyl)-4-(3-(2-propenoyl)-3,6-diazabicyclo[3.1.1]heptan-6-yl)pyrido[2,3-d]pyrimidin-2(1H)-one]
3.38 | nda μM	C=CC(=O)N1CCN(c2nc(=O)n(-c3ccccc3C(C)C)c3nc(-c4c(F)cccc4C#N)c(Cl)cc23)[C@@H](C)C1 (single isomer, unassigned) [Example 98-2]
3.45 | nda μM	C=CC(=O)N1CCN(c2nc(=O)n(-c3c(C)cccc3C(C)C)c3nc(-c4ccccc4F)c(C)cc23)[C@@H](C)C1 (single isomer, unassigned) [Example 102-1]
